Experiments:
Type in all cases: cell-based
[1] = biological target: T1, human H4 receptor (Homo sapiens, UniProt Q9H3N8); experiment: H4 Antagonist Functional cAMP Gi Assay; details: HEKf cells expressing human H4 receptor; functional antagonist pKb by Cheng-Prusoff vs histamine; read-out: Human H4 cAMP fpKb (converted)
T1 construct: expressed in transfected cells; host or cells: HEKf cells infected with baculovirus
Procedure: HEKf cells were infected overnight using baculovirus expressing the human H4 receptor, then centrifuged at 1,200 rpm for 5 min, frozen in cell freezing medium (Sigma) and stored at −150° C. On the day of assay, the cells were thawed and resuspended in HBSS with 500 nM IBMX to achieve a density of 1,500 cells/well. H4 ligands were prepared in DMSO and stamped by LabCyte ECHO acoustic dispensing at 25 nL in low volume plates. 10 μL/well cells were plated in the presence of 1 μM forskolin, subjected to centrifugation at 1,200 rpm for 1 min and incubated for 30 min prior to addition of Cisbio cAMP detection reagents to a total volume 20 μL/well. […] Following detection reagent addition and shaking at room temperature for 60 min, cAMP accumulation was measured using HTRF on a PheraStar plate reader. EC50 values were generated using a 4-parameter logistical fit equation to quantify agonist potencies. Functional antagonist affinity values were generated using the Cheng-Prusoff equation to calculate a pKb value using the antagonist assay data.

[2] = biological target: hERG (Homo sapiens, UniProt Q12809); experiment: hERG single-concentration assay (QPatch automated patch clamp, CHO cells, 30 μM); details: CHO cells stably expressing hERG
hERG, sequence (Q12809 whole entry): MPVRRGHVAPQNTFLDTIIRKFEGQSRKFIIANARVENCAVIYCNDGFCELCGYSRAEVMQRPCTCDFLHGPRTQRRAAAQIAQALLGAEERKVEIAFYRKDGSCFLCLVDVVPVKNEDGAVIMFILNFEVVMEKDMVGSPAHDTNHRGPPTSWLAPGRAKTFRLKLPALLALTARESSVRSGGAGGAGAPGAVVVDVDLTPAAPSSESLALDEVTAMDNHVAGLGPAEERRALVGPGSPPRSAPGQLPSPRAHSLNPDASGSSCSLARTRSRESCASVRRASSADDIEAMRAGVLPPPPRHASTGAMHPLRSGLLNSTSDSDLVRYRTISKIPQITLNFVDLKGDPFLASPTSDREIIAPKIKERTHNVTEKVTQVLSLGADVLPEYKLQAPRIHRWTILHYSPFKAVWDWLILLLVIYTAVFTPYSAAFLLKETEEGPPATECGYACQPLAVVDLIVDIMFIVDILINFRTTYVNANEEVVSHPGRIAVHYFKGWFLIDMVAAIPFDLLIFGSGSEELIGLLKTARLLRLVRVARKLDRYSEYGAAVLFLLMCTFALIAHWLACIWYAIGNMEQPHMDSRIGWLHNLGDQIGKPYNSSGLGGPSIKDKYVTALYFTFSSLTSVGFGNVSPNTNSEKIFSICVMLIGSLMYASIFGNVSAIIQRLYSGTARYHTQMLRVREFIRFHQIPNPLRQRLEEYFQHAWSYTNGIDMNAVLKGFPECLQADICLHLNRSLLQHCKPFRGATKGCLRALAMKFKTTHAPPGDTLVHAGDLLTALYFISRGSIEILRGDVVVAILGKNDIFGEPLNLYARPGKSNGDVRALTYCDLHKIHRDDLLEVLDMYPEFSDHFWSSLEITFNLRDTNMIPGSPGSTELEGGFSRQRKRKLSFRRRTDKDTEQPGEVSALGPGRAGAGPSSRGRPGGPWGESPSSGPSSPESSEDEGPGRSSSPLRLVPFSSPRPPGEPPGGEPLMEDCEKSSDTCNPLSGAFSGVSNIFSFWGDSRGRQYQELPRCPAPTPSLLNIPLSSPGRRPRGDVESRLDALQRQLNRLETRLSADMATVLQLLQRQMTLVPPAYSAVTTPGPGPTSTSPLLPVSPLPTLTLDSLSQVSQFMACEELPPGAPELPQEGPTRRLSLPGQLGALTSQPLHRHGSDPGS
Description: Series resistance (4-15 MΩ) was compensated by >80%.

[3] = biological target: T1, human H4 receptor; experiment: H4 Antagonist Functional Dynamic Mass Redistribution Assay; details: HEKf cells expressing human H4 receptor; functional antagonist pKb by Cheng-Prusoff vs histamine EC80; read-out: Human H4 DMR fpKb (converted)
Procedure: HEKf cells were infected using baculovirus expressing the human H4 receptor, plated into fibronectin-coated EPIC plates at a density of 10,000 cells/well and incubated overnight at 37° C. The medium on cells was changed to 30 μL HBSS with 20 mM HEPES per well and 30 nL DMSO were added per well by LabCyte ECHO acoustic dispensing. Following 2 h equilibration at room temperature, 30 nL of H4 ligands prepared in DMSO were stamped by LabCyte ECHO acoustic dispensing into seeded EPIC plates and cellular dynamic mass redistribution was monitored using a Corning EPIC plate reader. Following 45 min measurement, 30 nL/well of histamine EC80 was added and monitored to obtain antagonist assay data. Maximum baseline-corrected responses in pm were used to generate concentration response curves. EC50 values were generated using a 4-parameter logistical fit equation to quantify agonist potencies. Functional antagonist affinity values were generated using the Cheng-Prusoff equation to calculate a pKb value using the antagonist assay data.

Row | Kb [1] | Kb [3] | Structure (SMILES) | inhibition at 30 µM [2]
1 | 3.98 nM | – | CC(C)[C@@H]1COc2c(nc(N)nc2N2CCNCC2)N1 [Example 6-1, (R)-7-Isopropyl-4-(piperazin-1-yl)-7,8-dihydro-6H-pyrimido[5,4-b][1,4]oxazin-2-amine] | 13%
2 | 20 nM | – | Cc1cc(C)c2nc(-c3cnc(NCCCC4CCN(C)CC4)nc3C)[nH]c2c1 [Toreforant, reference compound] | 89%
3 | 3.98 nM | – | CNC1CN(c2ncnc3c2OC[C@@H](C(C)C)N3)C1 [Example 9-1, (R)-1-(7-Isopropyl-7,8-dihydro-6H-pyrimido[5,4-b][1,4]oxazin-4-yl)-N-methylazetidin-3-amine] | 18%
4 | 10 nM | – | CN[C@@H]1CCN(c2nc(N)nc3c2OCC(C(F)(F)F)N3)C1 (stereo partly drawn) [Example 1-8, 4-((R)-3-(Methylamino)pyrrolidin-1-yl)-7-(trifluoromethyl)-7,8-dihydro-6H-pyrimido[5,4-b][1,4]oxazin-2-amine] | 19%
5 | 316 nM | – | CN[C@@H]1CCN(c2ncnc3c2OCC(COC)N3)C1 (stereo partly drawn) [Example 7-3, (3R)-1-(7-(Methoxymethyl)-7,8-dihydro-6H-pyrimido[5,4-b][1,4]oxazin-4-yl)-N-methylpyrrolidin-3-amine] | 48%
6 | 10 nM | – | Nc1nc2c(c(N3CC[C@@H](N)C3)n1)OCC(C(F)(F)F)N2 (stereo partly drawn) [Example 2-3, 4-((R)-3-Aminopyrrolidin-1-yl)-7-(trifluoromethyl)-7,8-dihydro-6H-pyrimido[5,4-b][1,4]oxazin-2-amine] | 28%
7 | – | 10 nM | CCC1(C)CCOc2c(nc(N)nc2N2CC[C@@H](NC)C2)N1 (stereo partly drawn) [Example 17-10, 8-ethyl-8-methyl-4-[(3R)-3-(methylamino)pyrrolidin-1-yl]-6,7,8,9-tetrahydropyrimido[5,4-b][1,4]oxazepin-2-amine] | –
8 | – | 7.94 nM | CN[C@@H]1CCN(c2nc(N)nc3c2OCC2(CCCC2)N3)C1 [Example 17-11, 4′-[(3R)-3-(methylamino)pyrrolidin-1-yl]-6′H,8′H-spiro[cyclopentane-1,7′-pyrimido[5,4-b][1,4]oxazin]-2′-amine] | –
9 | 398 nM | – | CN[C@@H]1CCN(c2nc(N)nc3c2OC(C)CN3)C1 (stereo partly drawn) [Example 1-15, 6-Methyl-4-((R)-3-(methylamino)pyrrolidin-1-yl)-7,8-dihydro-6H-pyrimido[5,4-b][1,4]oxazin-2-amine] | 1.5%
10 | 0.631 nM | – | CN[C@@H]1CCN(c2ncnc3c2OC[C@@H](C(C)C)N3)C1 [Example 7-1, (R)-1-((R)-7-Isopropyl-7,8-dihydro-6H-pyrimido[5,4-b][1,4]oxazin-4-yl)-N-methylpyrrolidin-3-amine] | 31%
11 | – | 7.94 nM | CN[C@@H]1CCN(c2nc(N)nc3c2OCC2(CC(F)(F)C2)N3)C1 [Example 17-15, 3,3-difluoro-4′-[(3R)-3-(methylamino)pyrrolidin-1-yl]-6′H,8′H-spiro[cyclobutane-1,7′-pyrimido[5,4-b][1,4]oxazin]-2′-amine] | –
12 | 251 nM | – | CN[C@@H]1CCN(c2nc(N)nc3c2OC[C@@]2(C)CCCN32)C1 [Example 1-22, (R)-6a-Methyl-4-((R)-3-(methylamino)pyrrolidin-1-yl)-6a,7,8,9-tetrahydro-6H-pyrimido[5,4-b]pyrrolo[1,2-d][1,4]oxazin-2-amine] | 45%
13 | 501 nM | – | CN[C@@H]1CCN(c2nc(N)nc3c2OCCN3)C1 [Example 1-1, (R)-4-(3-(Methylamino)pyrrolidin-1-yl)-7,8-dihydro-6H-pyrimido[5,4-b][1,4]oxazin-2-amine] | 25%
14 | – | 10 nM | CC[C@@H]1CCOc2c(nc(N)nc2N2CC(NC)C2)N1 [Example 17-6, 8-ethyl-4-[3-(methylamino)azetidin-1-yl]-6,7,8,9-tetrahydropyrimido[5,4-b][1,4]oxazepin-2-amine] | –
15 | 2 nM | – | CN[C@@H]1CCN(c2nc(N)nc3c2OC[C@@H](C(C)(C)OC)N3)C1 [Example 1-12, (S)-7-(2-Methoxypropan-2-yl)-4-((R)-3-(methylamino)pyrrolidin-1-yl)-7,8-dihydro-6H-pyrimido[5,4-b][1,4]oxazin-2-amine] | 8.3%
16 | 12.6 nM | – | CN[C@@H]1CCN(c2nc(N)nc3c2OCC2CCCN32)C1 (stereo partly drawn) [Example 1-21, 4-((R)-3-(Methylamino)pyrrolidin-1-yl)-6a,7,8,9-tetrahydro-6H-pyrimido[5,4-b]pyrrolo[1,2-d][1,4]oxazin-2-amine] | 8.5%
17 | 6.31 nM | – | CN[C@@H]1CCN(c2nc(N)nc3c2OC[C@@H]([C@@H](C)OC)N3)C1 [Example 1-10, (S)-7-((R)-1-Methoxyethyl)-4-((R)-3-(methylamino)pyrrolidin-1-yl)-7,8-dihydro-6H-pyrimido[5,4-b][1,4]oxazin-2-amine] | 12%
18 | 12.6 nM | – | CNC1CN(c2nc(N)nc3c2OC[C@@H]([C@@H](C)OC)N3)C1 [Example 3-4, (S)-7-((R)-1-Methoxyethyl)-4-(3-(methylamino)azetidin-1-yl)-7,8-dihydro-6H-pyrimido[5,4-b][1,4]oxazin-2-amine] | 12%
19 | 3.16 nM | – | CC(C)[C@@H]1COc2c(nc(N)nc2N2CCN(C)CC2)N1 [Example 5-1, (R)-7-Isopropyl-4-(4-methylpiperazin-1-yl)-7,8-dihydro-6H-pyrimido[5,4-b][1,4]oxazin-2-amine] | 44%
20 | 1 nM | – | CC[C@@H]1COc2c(nc(N)nc2N2CC[C@@H](NC)C2)N1 [Example 1-3, (R)-7-Ethyl-4-((R)-3-(methylamino)pyrrolidin-1-yl)-7,8-dihydro-6H-pyrimido[5,4-b][1,4]oxazin-2-amine] | 18%
21 | 5.01 nM | – | CC(C)[C@@H]1COc2c(ncnc2N2CC[C@@H](N)C2)N1 [Example 8-1, (R)-1-((R)-7-Isopropyl-7,8-dihydro-6H-pyrimido[5,4-b][1,4]oxazin-4-yl)pyrrolidin-3-amine] | 21%
22 | 10 nM | – | CN[C@@H]1CCN(c2nc(N)nc3c2OC[C@@H](COC)N3)C1 [Example 1-9, (R)-7-(Methoxymethyl)-4-((R)-3-(methylamino)pyrrolidin-1-yl)-7,8-dihydro-6H-pyrimido[5,4-b][1,4]oxazin-2-amine] | 12%
23 | 6.31 nM | – | CN[C@@H]1CCN(c2nc(N)nc3c2OCC(C)(C)N3)C1 [Example 1-14, (R)-7,7-Dimethyl-4-(3-(methylamino)pyrrolidin-1-yl)-7,8-dihydro-6H-pyrimido[5,4-b][1,4]oxazin-2-amine] | 11%
24 | 25.1 nM | – | CN[C@@H]1CCN(c2nc(N)nc3c2OC[C@H](C(C)C)N3)C1 [Example 1-5, (S)-7-Isopropyl-4-((R)-3-(methylamino)pyrrolidin-1-yl)-7,8-dihydro-6H-pyrimido[5,4-b][1,4]oxazin-2-amine] | 68%

Row | Structure (SMILES) | Kb [1] | Kb [3] | inhibition at 30 µM [2]
25 | CC[C@@H]1CCOc2c(nc(N)nc2N2C[C@H]3CCCN[C@H]3C2)N1 [Example 17-8, 8-ethyl-4-[(4aR,7aR)-octahydro-6H-pyrrolo[3,4-b]pyridin-6-yl]-6,7,8,9-tetrahydropyrimido[5,4-b][1,4]oxazepin-2-amine] | – | 15.8 nM | –
